{"source": "patent US11684582B2", "about": "“Method for stabilizing humidity-sensitive pharmaceutical substance and stabilized preparation thereof” (Delta-Fly Pharma, Inc., priority 2021, dated 2023)", "key": {"[1]": {"tested_on": "patients having a solid cancer", "conditions": "phase-I trial, patients with solid cancer; cited from earlier work"}, "[2]": {"assay": "stability test in acceleration conditions (25° C./humidity 60%): appearance, purity and analogs by HPLC, water content, disintegration time, microbial content", "assay_type": "physicochemical"}, "cancer-bearing nude rats": {"tested_on": "cancer-bearing nude rats", "conditions": "oral, versus TS-1; cited from earlier work"}, "[3]": {"conditions": "bulk drug, 25° C./60% RH, after 3 months"}}}
{"compound": "CCOCn1cc(F)c(=O)n(C(=O)c2cccc(C(=O)Oc3cc(OC(=O)c4cc(OC(=O)CC)nc(OC(=O)CC)c4)c(Cl)cn3)c2)c1=O", "note": "[DFP-11207]", "values": [{"measurement": "safety (serious gastrointestinal toxicity, reduced blood platelet count)", "setting": "[1]", "value": "none of serious gastrointestinal toxicity such as diarrhea and toxicity of reduced blood platelet count were observed"}, {"measurement": "stable period (specifications satisfied)", "setting": "[2]; acceleration conditions (25° C./humidity 60%)", "value": "≤ 3", "unit": "months"}, {"measurement": "Analog (% area): Analog-1 (RRT 0.42)", "setting": "[2]; [3]", "value": 0.18, "unit": "%"}, {"measurement": "Analog (% area): Impurity 1 (RRT 0.49)", "setting": "[2]; [3]", "value": 0.73, "unit": "%"}, {"measurement": "Analog (% area): Impurity 2 (RRT 0.74)", "setting": "[2]; [3]", "value": 2.13, "unit": "%"}, {"measurement": "Analog (% area): Impurity 3 (RRT 0.83)", "setting": "[2]; [3]", "value": 0.49, "unit": "%"}, {"measurement": "Analog (% area): Impurity 4 (RRT 1.13)", "setting": "[2]; [3]", "value": 0.86, "unit": "%"}, {"measurement": "Analog (% area): Total impurities", "setting": "[2]; [3]", "value": 5.8, "unit": "%"}, {"measurement": "Analog (% area): relative elution time 0.30", "setting": "[2]; [3]", "value": 0.27, "unit": "%"}, {"measurement": "Analog (% area): relative elution time 0.80", "setting": "[2]; [3]", "value": 0.21, "unit": "%"}, {"measurement": "Analog (% area): relative elution time 0.88", "setting": "[2]; [3]", "value": 0.07, "unit": "%"}, {"measurement": "Analog (% area): relative elution time 0.89", "setting": "[2]; [3]", "value": 0.05, "unit": "%"}, {"measurement": "Analog (% area): relative elution time 0.90", "setting": "[2]; [3]", "value": 0.10, "unit": "%"}, {"measurement": "Analog (% area): relative elution time 0.92", "setting": "[2]; [3]", "value": 0.15, "unit": "%"}, {"measurement": "Analog (% area): relative elution time 0.93", "setting": "[2]; [3]", "value": 0.13, "unit": "%"}, {"measurement": "Analog (% area): relative elution time 0.94", "setting": "[2]; [3]", "value": 0.05, "unit": "%"}, {"measurement": "Analog (% area): relative elution time 1.03", "setting": "[2]; [3]", "value": 0.22, "unit": "%"}, {"measurement": "Analog (% area): relative elution time 1.29", "setting": "[2]; [3]", "value": 0.06, "unit": "%"}, {"measurement": "Analog (% area): relative elution time 1.30", "setting": "[2]; [3]", "value": 0.09, "unit": "%"}, {"measurement": "Appearance", "setting": "[2]; [3]", "value": "Grayish-white"}, {"measurement": "Purity (% area)", "setting": "[2]; [3]", "value": 94.0, "unit": "%"}, {"measurement": "Water content", "setting": "[2]; [3]", "value": 0.2, "unit": "%"}, {"measurement": "Passing status: Appearance", "setting": "[2]; bulk drug, 25° C./60% RH, after 3 months, specification Grayish-white to pale yellow", "value": "Passed"}, {"measurement": "Passing status: Water content", "setting": "[2]; bulk drug, 25° C./60% RH, after 3 months, specification ≤0.5%", "value": "Passed"}, {"measurement": "Passing status: Analog, individual impurities", "setting": "[2]; bulk drug, 25° C./60% RH, after 3 months, specification ≤1.0%", "value": "Not"}, {"measurement": "Passing status: Total impurities", "setting": "[2]; bulk drug, 25° C./60% RH, after 3 months, specification ≤4.0%", "value": "Not"}, {"measurement": "therapeutic effects", "setting": "cancer-bearing nude rats", "value": "more excellent than TS-1"}]}
